US20100292214A1, “Compounds with Antiparasitic Activity, Applications thereof to the Treatment of Infectious Diseases Caused by Apicomplexans” (commissariat a l'Energie Atomique, priority 2007, published 2010)
Where a name gives a salt, the structure may show the parent alone. Read-outs that look alike come from different tables or passages of the source.

Columns and labels:
[1] = tested on: asynchronous 3D7 chloroquine-sensitive P. falciparum infected red blood cells; assay: Labeled hypoxanthine incorporation assay (in vitro anti-malarial activity); type: cell-based; conditions: Plasmodium falciparum, 3D7, Erythrocyte, read-out: IC50 assessed on Plasmodium Falciparum
[2] = tested on: Toxoplasma gondii RH-β1 strain; assay: microbe, parasite or virus in culture; type: cell-based; conditions: Toxoplasma gondii, read-out: IC50 assessed on Toxoplama Gondii
[3] = 3D7 chloroquine-sensitive strain, infected RBC, 48 h contact, [3H]-hypoxanthine incorporation, two independent experiments in duplicates

SMILES: C[C@@H](COC(=O)N1CCC(N(c2ccccc2)S(=O)(=O)c2cccc3c(N(C)C)cccc23)CC1)N(Cc1ccccc1)Cc1ccccc1 [Compound 172, (S)-2-(dibenzylamino)propyl 4-(N-phenyl-(5-dimethylamino)naphthalen-1-ylsulfonamido)piperidine-1-carboxylate]
- IC50 [1, 3]: 314 nM
- IC50 [2]: 212 nM

SMILES: C[C@@H](COC(=O)N1CC=C(n2c(=O)[nH]c3ccccc32)CC1)N(Cc1ccccc1)Cc1ccccc1 [Compound 28, (S)-2-(dibenzylamino)propyl 5,6-dihydro-4-(1,2-dihydro-2-oxobenzo[d]imidazol-3-yl)pyridine-1(2H)-carboxylate]
- IC50 [1, 3]: 4100 nM
- IC50 [2]: 3500 nM

SMILES: C[C@@H](CN1CCC(n2c(=O)[nH]c3ccccc32)CC1)N(Cc1ccccc1)Cc1ccccc1 [Compound 50, 1-(1-((S)-2-(dibenzylamino)propyl)piperidin-4-yl)-1H-benzo[d]imidazol-2(3H)-one]
- IC50 [1, 3]: 3340 nM
- IC50 [2]: 7000 nM

SMILES: C[C@@H](COC(=O)N1CCC(n2c(=O)n(CCCC(=O)O)c3ccccc32)CC1)N(Cc1ccccc1)Cc1ccccc1 [Compound 78, (S)-4-(3-(1-((2-(dibenzylamino)propoxy)carbonyl)piperidin-4-yl)-2-oxo-2,3-dihydro-1H-benzo[d]imidazol-1-yl)butanoic acid]
- IC50 [1, 3]: 6290 nM
- IC50 [2]: 1700 nM

SMILES: C[C@@H](COC(=O)N1CCC(n2c(=O)n(S(=O)(=O)c3ccc(F)cc3)c3ccccc32)CC1)N(Cc1ccccc1)Cc1ccccc1 [Compound 56, (S)-2-(dibenzylamino)propyl 4-(3-(4-fluorophenylsulfonyl)-2-oxo-2,3-dihydro-1H-benzo[d]imidazol-1-yl)piperidine-1-carboxylate]
- IC50 [1, 3]: 330 nM
- IC50 [2]: 1500 nM

SMILES: CC(=O)Nc1ccc(S(=O)(=O)n2c(=O)n(C3CCN(C(=O)OC[C@H](C)N(Cc4ccccc4)Cc4ccccc4)CC3)c3ccccc32)cc1 [Compound 63, (S)-2-(dibenzylamino)propyl 4-(2-oxo-3-(4-acetamidylphenylsulfonyl)-2,3-dihydro-1H-benzo[d]imidazol-1-yl)piperidine-1-carboxylate]
- IC50 [1, 3]: 1540 nM
- IC50 [2]: 3000 nM

SMILES: C[C@@H](COC(=O)N1CCC(n2c(=O)n(C)c3ccccc32)CC1)N(Cc1ccccc1)Cc1ccccc1 [Compound 69, (S)-2-(dibenzylamino)propyl 4-(1,2-dihydro-1-methyl-2-oxobenzo[d]imidazol-3-yl)piperidine-1-carboxylate]
- IC50 [1, 3]: 1540 nM
- IC50 [2]: 200 nM

SMILES: C[C@@H](COC(=O)N1CCC(n2cnc3ccccc32)CC1)N(Cc1ccccc1)Cc1ccccc1 [Compound 3, (S)-2-(dibenzylamino)propyl 4-(1H-benzo[d]imidazol-1-yl)piperidine-1-carboxylate]
- IC50 [1, 3]: 1810 nM
- IC50 [2]: 8000 nM

SMILES: C[C@@H](COC(=O)N1CCC(Nc2ccccc2)CC1)N(Cc1ccccc1)Cc1ccccc1 [Compound 80, (S)-2-(dibenzylamino)propyl 4-(phenylamino)piperidine-1-carboxylate]
- IC50 [1]: 3410 nM
- IC50 [2]: 9500 nM

SMILES: O=C(OC[C@H](Cc1ccccc1)N(Cc1ccccc1)Cc1ccccc1)N1CCC(Nc2ccccc2)CC1 [Compound 152, (S)-2-(dibenzylamino)-3-phenylpropyl 4-(phenylamino)piperidine-1-carboxylate]
- IC50 [1]: 922 nM
- IC50 [2]: 3800 nM

SMILES: C[C@@H](COC(=O)N1CCC(Nc2nc3ccccc3[nH]2)CC1)N(Cc1ccccc1)Cc1ccccc1 [Compound 93, (S)-2-(Dibenzylamino)propyl 4-(1H-benzo[d]imidazol-2-ylamino)piperidine-1-carboxylate]
- IC50 [1, 3]: 180 nM
- IC50 [2]: 980 nM

SMILES: C[C@@H](COC(=O)N1CCC(n2c(=O)n(S(=O)(=O)c3cccc4ccccc34)c3ccccc32)CC1)N(Cc1ccccc1)Cc1ccccc1 [Compound 61, (S)-2-(dibenzylamino)propyl 4-(3-(naphthalen-1-ylsulfonyl)-2-oxo-2,3-dihydro-1H-benzo[d]imidazol-1-yl)piperidine-1-carboxylate]
- IC50 [1, 3]: 950 nM
- IC50 [2]: 2300 nM

SMILES: Cc1cccc(S(=O)(=O)N(c2ccccc2)C2CCN(C(=O)OC[C@H](C)N(Cc3ccccc3)Cc3ccccc3)CC2)c1 [Compound 168, (S)-2-(dibenzylamino)propyl 4-(N-phenyl-3-methylphenylsulfonamido)piperidine-1-carboxylate]
- IC50 [1, 3]: 483 nM
- IC50 [2]: 2900 nM

SMILES: O=C(OCCCN(Cc1ccccc1)Cc1ccnc2ccccc12)N1CCC(n2c(=O)[nH]c3ccccc32)CC1 [Compound 145, 3-(benzyl(quinolin-4-ylmethyl)amino)propyl 4-(2-oxo-2,3-dihydro-1H-benzo[d]imidazol-1-yl)piperidine-1-carboxylate hydrochloride]
- IC50 [1, 3]: 731 nM
- IC50 [2]: 3300 nM

SMILES: O=C(OCCN(Cc1ccccc1)Cc1cccc(Oc2ccccc2)c1)N1CCC(n2c(=O)[nH]c3ccccc32)CC1 [Compound 123, 2-(benzyl(3-phenoxybenzyl)amino)ethyl 4-(2-oxo-2,3-dihydro-1H-benzo[d]imidazol-1-yl)piperidine-1-carboxylate hydrochloride]
- IC50 [1, 3]: 1420 nM
- IC50 [2]: 3700 nM

SMILES: C[C@@H](COC(=O)N1CCC(n2c(=O)[nH]c3ncccc32)CC1)N(Cc1ccccc1)Cc1ccccc1 [Compound 11, (S)-2-(dibenzylamino)propyl 4-(2,3-dihydro-2-oxoimidazo[4,5-b]pyridin-1-yl)piperidine-1-carboxylate]
- IC50 [1, 3]: 3840 nM
- IC50 [2]: 2500 nM

SMILES: COc1cccc(CN(CCCOC(=O)N2CCC(n3c(=O)[nH]c4ccccc43)CC2)Cc2ccccc2)c1 [Compound 149, 3-(benzyl(3-methoxybenzyl)amino)propyl 4-(2-oxo-2,3-dihydro-1H-benzo[d]imidazol-1-yl)piperidine-1-carboxylate hydrochloride]
- IC50 [1, 3]: 588 nM
- IC50 [2]: 3500 nM

SMILES: C[C@@H](COC(=O)N1CCC(Nc2cccc(F)c2)CC1)N(Cc1ccccc1)Cc1ccccc1 [Compound 84, (S)-2-(dibenzylamino)propyl 4-(3-fluorophenylamino)piperidine-1-carboxylate]
- IC50 [1]: 6740 nM
- IC50 [2]: 5500 nM

SMILES: O=C(OC[C@@H](Cc1ccccc1)N(Cc1ccccc1)Cc1ccccc1)N1CCC(n2c(=O)[nH]c3ccccc32)CC1 [Compound 118, (R)-2-(dibenzylamino)-3-phenylpropyl 4-(1,2-dihydro-2-oxobenzo[d]imidazol-3-yl)piperidine-1-carboxylate]
- IC50 [1, 3]: 1490 nM
- IC50 [2]: 2900 nM

SMILES: O=c1[nH]c2ccccc2n1C1CCN(C(=S)OCCOCc2ccccc2)CC1 [Compound 47, O-2-(benzyloxy)ethyl 4-(1,2-dihydro-2-oxobenzo[d]imidazol-3-yl)piperidine-1-carbothioate]
- IC50 [1, 3]: 23200 nM
- IC50 [2]: 1130 nM

SMILES: C[C@@H](COC(=O)N1CCC(n2c(=O)n(S(C)(=O)=O)c3ccccc32)CC1)N(Cc1ccccc1)Cc1ccccc1 [Compound 62, (S)-2-(dibenzylamino)propyl 4-(2-oxo-3-methylsulfonyl-2,3-dihydro-1H-benzo[d]imidazol-1-yl)piperidine-1-carboxylate]
- IC50 [1, 3]: 1600 nM
- IC50 [2]: 1980 nM

SMILES: C[C@@H](COC(=O)N1CCC(n2c(=O)n(C(=O)c3ccccc3)c3ccccc32)CC1)N(Cc1ccccc1)Cc1ccccc1 [Compound 64, (S)-2-(dibenzylamino)propyl 4-(1,2-dihydro-2-oxo-1-(benzoyl)benzo[d]imidazol-3-yl)piperidine-1-carboxylate]
- IC50 [1, 3]: 2880 nM
- IC50 [2]: 960 nM

SMILES: COc1ccc(NC2CCN(C(=O)OC[C@H](C)N(Cc3ccccc3)Cc3ccccc3)CC2)cc1 [Compound 81, (S)-2-(dibenzylamino)propyl 4-(4-methoxyphenylamino)piperidine-1-carboxylate]
- IC50 [1, 3]: 8420 nM
- IC50 [2]: 10000 nM

SMILES: C[C@@H](COC(=O)N1CCC(c2c[nH]c3ccccc23)CC1)N(Cc1ccccc1)Cc1ccccc1 [Compound 44, (S)-2-(dibenzylamino)propyl 4-(1H-indol-3-yl)piperidine-1-carboxylate]
- IC50 [1, 3]: 5210 nM
- IC50 [2]: 1850 nM

SMILES: COc1cccc(CN(Cc2ccccc2)[C@@H](C)COC(=O)N2CCC(n3c(=O)[nH]c4ccccc43)CC2)c1 [Compound 126, (S)-2-(benzyl(3-methoxybenzyl)amino)propyl 4-(2-oxo-2,3-dihydro-1H-benzo[d]imidazol-1-yl)piperidine-1-carboxylate hydrochloride]
- IC50 [1, 3]: 3980 nM
- IC50 [2]: 3750 nM

SMILES: O=C(OCCN(CCCc1ccccc1)Cc1ccccc1)N1CCC(n2c(=O)[nH]c3ccccc32)CC1 [Compound 120, 2-(benzyl(3-phenylpropyl)amino)ethyl 4-(2-oxo-2,3-dihydro-1H-benzo[d]imidazol-1-yl)piperidine-1-carboxylate hydrochloride]
- IC50 [1, 3]: 3610 nM
- IC50 [2]: 1700 nM

SMILES: C[C@@H](COC(=O)N1CCC(n2c(=S)[nH]c3ccccc32)CC1)N(Cc1ccccc1)Cc1ccccc1 [Compound 97, (S)-2-(dibenzylamino)propyl 4-(1,2-dihydro-2-thioxobenzo[d]imidazol-3-yl)piperidine-1-carboxylate]
- IC50 [1, 3]: 1060 nM
- IC50 [2]: 3500 nM

SMILES: C[C@@H](COC(=O)N1CCC(n2c(=O)[nH]c3cc(Cl)ccc32)CC1)N(Cc1ccccc1)Cc1ccccc1 [Compound 38, (S)-2-(dibenzylamino)propyl 4-(6-chloro-1,2-dihydro-2-oxobenzo[d]imidazol-3-yl)piperidine-1-carboxylate]
- IC50 [1, 3]: 4680 nM
- IC50 [2]: 1000 nM

SMILES: C[C@@H](COC(=O)N1CCC(n2c(=O)[nH]c3ccccc32)CC1)N(Cc1ccccc1)Cc1ccnc2ccccc12 [Compound 133, (S)-2-(benzyl(quinolin-4-ylmethyl)amino)propyl 4-(2-oxo-2,3-dihydro-1H-benzo[d]imidazol-1-yl)piperidine-1-carboxylate hydrochloride]
- IC50 [1, 3]: 2550 nM
- IC50 [2]: 1000 nM

SMILES: O=C(OCC(c1ccccc1)c1ccccc1)N1CCC(n2c(=O)[nH]c3ccccc32)CC1 [Compound 43, 2,2-diphenylethyl 4-(1,2-dihydro-2-oxobenzo[d]imidazol-3-yl)piperidine-1-carboxylate]
- IC50 [1, 3]: 8330 nM
- IC50 [2]: 12000 nM
